Data from paper PMC10376326, “Novel Acylselenourea Derivatives: Dual Molecules with Anticancer and Radical Scavenging Activity” (Antioxidants, 2023).

Columns and labels:
[1] = test system: DU-145 (prostate) cancer cell line; test: MTT cell viability assay, DU-145; format: cell-based, human; conditions: Homo sapiens, DU-145, 48 h; for activity at 10 µM: read-out: Cell growth %, DU-145, 10 µM, 48 h, MTT; for activity at 50 µM: read-out: Cell growth %, DU-145, 50 µM, 48 h, MTT
Procedure: (§1) Cell lines were purchased from the American Type Culture Collection (ATCC). Cell lines MDA-MB-231, HTB-54, DU-145, and BEAS-2B were cultured in RPMI 1640 medium (Gibco, Thermo Fisher Scientific, Gaithersburg, MD, USA) supplemented with 10% fetal bovine serum (FBS; Gibco), 100 units/mL penicillin, and […] streptomycin (Gibco). HT-29 cell line was grown in McCoy’s 5A (Gibco), 10% FBS, 100 units/mL penicillin, and 100 μg/mL streptomycin. Cells were maintained at 37 °C and 5% CO2. The culture medium was changed every three days.
(§2) The cell viability of each compound was measured by MTT colorimetric assay. Each compound was dissolved in DMSO at a concentration of 0.01 M. Each compound was tested at two different concentrations (10 and 50 µM) in MDA-MB-231 (breast), HTB-54 (lung), DU-145 (prostate), and HT-29 (colon) human cancer cell lines. Serial dilutions were prepared with supplemented culture medium. […] IC50 and selectivity indexes (SI) were determined.
(§3) Briefly, 1 × 10^4 tumor cells per well were grown in 96-well plates for 24 h. Then, these cells were incubated for 48 h with either DMSO (control) or a different concentration of each of the tested compounds. The cell viability was determined by adding 20 μL of MTT two hours and a half before the termination point. After this time, the culture medium was removed. The resulting formazan crystals were dissolved in 50 μL of DMSO, and the absorbance was measured at 570 nm. Results are expressed as % cell growth. The data were obtained from at least three independent experiments performed in quadruplicate.

[2] = test system: HT-29 (colon) cancer cell line; test: MTT cell viability assay, HT-29; format: cell-based; conditions: Homo sapiens, HT-29, 48 h, read-out: Cell growth %; for activity at 10 µM: HT-29, 10 µM; for activity at 50 µM: HT-29, 50 µM
Procedure: as §1, §2, §3

DU-145 cells = test: Protective effects against H2O2-induced oxidative stress in DU-145 cells (MTT); format: cell-based, human; conditions: increase-fold of cell survival
Procedure: Cells were treated with the selected compounds and then oxidative damage to DU-145 cells was induced using different concentrations of H2O2 (200, 250 and 300 µM), and cell viability was assessed by the MTT method. Briefly, 2.5 × 10^4 DU-145 cells per well were added in 96-well plates. After 24 h of incubation, DMSO, 1.I, 2.I, 5.I, 7.II, 10.II, and ascorbic acid were added to each well at two different concentrations (0.0015 mg/mL and 0.0003 mg/mL) and incubated for 1 h. After that, H2O2 was added at the concentrations of 200, 250, and 300 µM, and the cells were incubated for 12 h to induce cell damage. MTT assay was used to measure cell viability. For each treatment, the mean cell viability was calculated from three independent experiments. The DMSO-treated controls were assigned with a cell viability value of 100% (Vcontrol). The results are expressed as a cell growth inhibition % caused by H2O2 and the increased fold of cell survival, as follows: • Cells without compounds, only treated with H2O2: (2) % Cell growth inhibition=Acontrol - Asample/Acontrol × 100
• Cells treated with compounds and H2O2:
(3) % Cell growth inhibition=Asample (compound) - Asample (compound+H2O2)/Acontrol × 100
(4) Increase-fold of cell survival=% cell growth inhibition (H2O2)/% cell growth inhibition (compound+ H2O2)
The standard error of the mean (SEM) was calculated in at least three independent experiments performed in quadruplicates.

[3] = test system: HTB-54 (lung) cancer cell line; test: MTT cell viability assay, HTB-54; format: cell-based, human; conditions: for activity at 10 µM / activity at 50 µM / IC50: Homo sapiens, HTB-54, 48 h; for activity at 10 µM: read-out: Cell growth %, HTB-54, 10 µM, 48 h, MTT; for activity at 50 µM: read-out: Cell growth %, HTB-54, 50 µM, 48 h, MTT; for IC50: read-out: IC50 HTB-54, Lung, MTT, 48 h; for SI: IC50 (BEAS-2B)/IC50 (HTB-54)
Procedure: as §1, §2, §3

[4] = DPPH radical scavenging assay; format: biochemical
In short: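 Acylselenoureas at 0.003 and 0.03 mg/mL (final dilutions from DMSO stock, via methanol) mixed with DPPH• prepared at 0.04 mg/mL in methanol. Absorbance decrease at 517 nm followed 0–120 min; % scavenging calculated relative to negative control, triplicates.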

[5] = test system: MDA-MB-231 (breast) cancer cell line; test: MTT cell viability assay, MDA-MB-231; format: cell-based, human; conditions: Homo sapiens, MDA-MB-231, 48 h; for activity at 10 µM: read-out: Cell growth %, MDA-MB-231, 10 µM, 48 h, MTT; for activity at 50 µM: read-out: Cell growth %, MDA-MB-231, 50 µM, 48 h, MTT
Procedure: as §1, §2, §3

[6] = test system: non-malignant BEAS-2B lung cell line; test: MTT cell viability assay, BEAS-2B; format: cell-based; conditions: Homo sapiens, normal lung, 48 h
Procedure: as §1, §2, §3

[7] = test system: MDA-MB-231, HT-29, HTB-54 and DU-145 cancer cell lines; test: MTT cell viability assay, statements over the panel of cancer cell lines; format: cell-based, human; conditions: in at least three of the four cancer cell lines tested
Procedure: as §1, §2, §3

[8] = compound 0.0003 mg/mL, 200 µM H2O2, DU-145
[9] = compound 0.0003 mg/mL, 250 µM H2O2, DU-145
[10] = compound 0.0003 mg/mL, 300 µM H2O2, DU-145
[11] = compound 0.0015 mg/mL, 200 µM H2O2, DU-145
[12] = compound 0.0015 mg/mL, 250 µM H2O2, DU-145
[13] = compound 0.0015 mg/mL, 300 µM H2O2, DU-145

Structure (SMILES)	activity at 10 µM [1]	activity at 50 µM [1]	activity at 10 µM [2]	activity at 50 µM [2]	Increase-fold (DU-145 cells; [8])	Increase-fold (DU-145 cells; [9])	activity at 10 µM [3]	activity at 50 µM [3]	inhibition ([4]; 0.003 mg/mL, 0 min)	inhibition ([4]; 0.003 mg/mL, 5 min)	inhibition ([4]; 0.003 mg/mL, 15 min)	inhibition ([4]; 0.003 mg/mL, 30 min)	inhibition ([4]; 0.003 mg/mL, 60 min)	inhibition ([4]; 0.003 mg/mL, 90 min)	inhibition ([4]; 0.003 mg/mL, 120 min)	inhibition ([4]; 0.03 mg/mL, 0 min)	inhibition ([4]; 0.03 mg/mL, 5 min)	inhibition ([4]; 0.03 mg/mL, 15 min)	activity at 10 µM [5]	activity at 50 µM [5]	further results
CCCNC(=[Se])NC(=O)c1cccs1 [Compound 2.I, N-(propylcarbamoselenoyl)thiophene-2-carboxamide]	54.5 ± 8.4%	50.2 ± 2%	48.4 ± 13.8%	32.7 ± 6.9%	0.8 ± 0.2	0.9 ± 0.2	92.3 ± 6.2%	71.8 ± 4.4%	0%	4.9 ± 3.6%	8.2 ± 3.3%	11.4 ± 2.7%	16 ± 3.4%	17 ± 2.2%	17.8 ± 2.2%	2.5 ± 0.6%	12.8 ± 1.8%	36.2 ± 0.1%	32.8 ± 7.2%	15.2 ± 8.8%	Increase-fold (DU-145 cells; [10]): 1.0 ± 0.3; Increase-fold (DU-145 cells; [11]): 2.9 ± 1.5; Increase-fold (DU-145 cells; [12]): 3.1 ± 1.3; Increase-fold (DU-145 cells; [13]): 2.9 ± 1.2; IC50 [3]: 8.6 ± 1.1 µM; SI [3]: 0.6; time to reach the highest DPPH inhibition ([4]; 0.03 mg/mL): 60 min; inhibition ([4]; 0.03 mg/mL, 30 min): 59 ± 3%; inhibition ([4]; 0.03 mg/mL, 60 min): 90.7 ± 5.7%; inhibition ([4]; 0.03 mg/mL, 90 min): 95.5 ± 0.2%; inhibition ([4]; 0.03 mg/mL, 120 min): 95.5 ± 0.3%; IC50 [6]: 5.3 ± 0.6 µM; cell growth [7]: below 55%
C#CCNC(=[Se])NC(=O)/C=C/c1ccco1 [Compound 3.III, (E)-3-(furan-2-yl)-N-(prop-2-in-1-ylcarbamoselenoyl)acrylamide]	86.5 ± 9.3%	24.7 ± 4.9%	–	51.4 ± 6%	–	–	74.2 ± 4%	35.3 ± 5.7%	0.9 ± 1.9%	1.2 ± 1.8%	1.9 ± 1.7%	2.7 ± 1.7%	4.1 ± 1.7%	5.3 ± 1.7%	6.2 ± 1.6%	2.6 ± 1.3%	6.3 ± 1.1%	10.9 ± 0.9%	66.8 ± 7.2%	20.1 ± 8%	melting point: 118 to 119 °C; inhibition ([4]; 0.03 mg/mL, 30 min): 17.5 ± 0.4%; inhibition ([4]; 0.03 mg/mL, 60 min): 28.4 ± 0.4%; inhibition ([4]; 0.03 mg/mL, 90 min): 37.1 ± 0.3%; inhibition ([4]; 0.03 mg/mL, 120 min): 45.9 ± 0.6%
C=CCNC(=[Se])NC(=O)c1cccnc1 [Compound 7.II, N-(allylcarbamoselenoyl)nicotinamide]	50.6 ± 2.4%	8.95 ± 4.9%	110 ± 19.4%	19 ± 3.6%	2.3 ± 1.2	1.6 ± 0.2	21.4 ± 8.2%	10.2 ± 5.8%	3.6 ± 2.3%	12 ± 2.2%	16.8 ± 1.3%	18.9 ± 1.3%	20.3 ± 1.2%	20.7 ± 1.3%	20.7 ± 1.3%	56.3 ± 6.2%	90 ± 1.3%	95.7 ± 0.4%	33.9 ± 6.7%	10.5 ± 7%	Increase-fold (DU-145 cells; [10]): 1.8 ± 0.4; Increase-fold (DU-145 cells; [11]): 1.5 ± 0.2; Increase-fold (DU-145 cells; [12]): 1.2 ± 0.3; Increase-fold (DU-145 cells; [13]): 1.4 ± 0.3; IC50 [3]: 12 ± 2.7 µM; SI [3]: 0.5; time to reach the highest DPPH inhibition ([4]; 0.03 mg/mL): 5 min; DPPH Inhibitory% ([4]; acylselenourea analogs, 0.03 mg/mL, 90 min): 96.2 ± 0.2%; IC50 [6]: 6.3 ± 1.5 µM; cell growth [7]: below 55%
C=CCNC(=[Se])NC(=O)c1cccc(C(=O)NC(=[Se])NCC=C)c1 [Compound 10.II, N^1,N^3-bis(allylcarbamoselenoyl)isophthalamide]	18.1 ± 2.7%	18.8 ± 3.1%	47.8 ± 8.7%	46.4 ± 4.8%	0.8 ± 0.4	1.0 ± 0.3	52.6 ± 10.5%	43.5 ± 17.6%	0.9 ± 1.8%	6.7 ± 1.7%	11.5 ± 1.5%	14.7 ± 1.2%	17.7 ± 1.1%	19 ± 0.9%	19.7 ± 0.9%	31.6 ± 4.1%	69.1 ± 0.1%	86.3 ± 0.9%	24.8 ± 6.1%	21 ± 9.4%	Increase-fold (DU-145 cells; [10]): 1.0 ± 0.2; Increase-fold (DU-145 cells; [11]): 1.0 ± 0.6; Increase-fold (DU-145 cells; [12]): 1.1 ± 0.2; Increase-fold (DU-145 cells; [13]): 1.1 ± 0.2; SI [3]: 0.7; time to reach the highest DPPH inhibition ([4]; 0.03 mg/mL): 60 min; inhibition ([4]; 0.03 mg/mL, 30 min): 94.4 ± 0.7%; inhibition ([4]; 0.03 mg/mL, 60 min): 96.1 ± 0.1%; inhibition ([4]; 0.03 mg/mL, 90 min): 96 ± 0.2%; inhibition ([4]; 0.03 mg/mL, 120 min): 96 ± 0.3%; IC50 [6]: 29.9 ± 5 µM; cell growth [7]: below 55%
